Results taken from patent publication US11447505B1, “Pyrrolo[2,3-b]pyridine compounds and their use in the treatment of cancer” (priority 2017, dated 2022).
“Also recorded” adds a separate entry of the source.

Tests used:
MRCKβ [1] = target: T1, MRCKβ (Homo sapiens (Human), UniProt Q9Y5S2); experiment: MRCKβ kinase assay (IMAP fluorescence polarization); format: biochemical; details: 1 μM ATP; read-out: MRCK-B Average Ki
Text: (§1) MRCKα, MRCKβ, ROCK1 and ROCK2 Kinase Assays

G7 and E2 cells = experiment: Clonogenic survival assay with irradiation; format: cell-based, human; details: 100 nM, G7 or E2 cells
Description: (§3) FIG. 4. […] N.S.=not significant. […] Cells were imaged using an Operetta high-throughput imaging platform. Red: actin, blue: DAPI, Scale bar: 100 μm. Automated image analysis was undertaken to quantify changes in neurite morphology. Data from >1000 cells.

E2 cells [2] = experiment: Neurite morphology, automated image analysis; format: cell-based, human; details: cells treated with irradiation
Description: as §3

E2 and G7 cells = experiment: Sub confluent migration assay of irradiated GBM cells (timelapse, single cell tracking); format: cell-based, human; details: 2 Gy
Description: (§4) Cells were irradiated using an Xstrahl RX225 radiation cabinet (195 kV X-rays, dose rate 1.39 Gy/minute). For sub confluent migration assays, 2×10^5 cells per well were plated at in 6 well dishes and migration imaged by timelapse microscopy capturing images every 15 mins. Migration velocity was calculated using single cell tracking via ImageJ analysis. For ex vivo migration assays, cell were seeded onto fresh 1 mm coronal brain slices obtained from 6-8 week old C57BL/6 mice in culture medium (described above) and allowed to establish overnight with incubation at 37° C., 5% CO2. Brain slices were then inverted onto Lumox 35 mm dishes (8 μm, Sarstedt) and secured with Nuclepore Track-Etch membrane (Whatman) sealed with Matrigel. Migration was captured via confocal timelapse microscopy with images taken every 15 mins. Migration velocity was calculated using single cell tracking via ImageJ analysis.
(§5) (B) Treated cells were exposed to 0 Gy or 2 Gy and imaged in a sub-confluent migration assay. Cell speed was measured by single cell tracking. […] Data from 3 biological replicates. (D) Fluorescently labelled E2 cells were exposed to 0 Gy or 2 Gy radiation and seeded onto fresh murine brain slices. […] Data from 3 biological replicates. […] Baseline value of 34% was calculated from the average of 10 non-motile, non-irradiated cells. […]

pMLC2 = pMLC2 immunofluorescence, Operetta high-throughput imaging; format: cell-based, human
Description: Cells were imaged using an Operetta high-throughput imaging platform. Green: pMLC2; yellow: actin; red: whole cell dye; blue: DAPI; Scale bar: 100 μm. (ii) Automated image analysis was undertaken to compare pMLC2 levels in control and irradiated cells. Data are derived from two biological repeats, each analysing >400 cells per condition.
Cells were imaged using an Operetta high-throughput imaging platform. Automated image analysis was used to compare pMLC2 levels. Data from two biological repeats with >400 cells per condition per biological replicate. Data plotted as a percentage of vehicle. […] Cells were imaged using an Operetta high-throughput imaging platform.

MRCKα pS1003 = MRCKα pS1003 immunohistochemical staining of topically treated mouse skin and papillomas; details: vs DMSO
Description: (§6) Mice were culled 2 hours after final treatment. […] Mice were culled 2 hours, 4 hours, 8 hours or 24 hours after final treatment.
(§7) For DMBA/TPA experiments, 40 FVB mice were treated topically with 25 μg DMBA in acetone on day 1. From day 5, 4.7 μg TPA in acetone was applied 3 times weekly. […] Experimenters were fully blinded to the identity of treatment groups. Mice weights and general conditions were monitored at least 2 times per week, tumor sizes and numbers were recorded weekly. Mice were culled when papillomas reached 12 mm in diameter. Analysis of tumor volume and papilloma numbers were performed blinded to the identity of treatment groups.

E2 cells [3] = experiment: Ex vivo migration assay of irradiated GBM cells on murine brain slices; format: cell-based, human; details: 100 nM, 2 Gy
Description: as §4, §5

G7 cells = experiment: Cell viability assay; format: cell-based, human
Description: as §3

[4] = PK analysis in mice bearing intracranial U87MG or G7 tumours, subcutaneous dosing; format: in vivo, mouse
Description: (§8) Female CD1 nude mice were orthotopically injected with 1×10^5 G7 or U87MG cells into the subventricular zone as previously described (16, 17). Tumours were allowed to establish for before magnetic resonance imaging (MRI) to confirm presence of tumour. Radiation treatments were conducted using an XSrtahl Small Animal Radiation Research Platform (SARRP). […] Tumours were sub-dissected and fresh frozen specimens sent for PK analysis (Vertex, UK). Formalin fixed, paraffin embedded sections were stained for Ki67, HLA or phosphoMYPT1 then scanned using a Hamamatsu Nanozoomer Slide scanning machine with Leica SlidePath Slide imaging software. Algorithms were optimised for each stain individually and automated, quantitative analysis undertaken. The defining of contralateral regions was performed blinded.
(§9) Tumours were sub-dissected from normal brain tissue and analysed by mass spectrometry to determine total compound levels (‘Total’). […] G7 intracranial tumours were allowed to establish for 12 weeks before initiation of treatment. The study was randomised and blinded. […] (D) Brain sections were stained by IHC for pMYPT1 levels (i). Levels of nuclear and cytoplasmic pMYPT1 were quantified by automated analysis using SlidePath. Statistical analysis: two tailed, unpaired t test. *p<0.05.

DMBA/TPA skin papillomas = experiment: DMBA/TPA mouse model of squamous cell carcinoma, topical treatment; format: in vivo; details: topical 25 μg 5 times per week for 14 weeks, vs DMSO
Description: as §7

ROCK1 [5] = target: T2, ROCK1 (Homo sapiens (Human), UniProt Q13464); experiment: biochemical
Description: MRCKα, MRCKβ, ROCK1 and ROCK2 assays were performed using an IMAP fluorescence polarization assay format (Molecular Devices Inc.). […] Typically, dose response analyses were performed over concentration ranges from 0.005-100 μM. […] After 30 min incubation to allow binding reagent to bind phosphorylated peptide, fluorescence polarization was measured on a Tecan Saphire^2 plate reader at excitation (470 nm) and emission (530 nm) wavelengths.

[6] = target: kinase targets listed in tables 3 and 4 (Homo sapiens, UniProt Q9BXA7); experiment: biochemical
[7] = target: kinase targets listed in tables 3 and 4 (Homo sapiens, UniProt Q13464); experiment: biochemical
[8] = target: kinase targets listed in tables 3 and 4 (Homo sapiens, UniProt Q9Y5S2); experiment: biochemical
[9] = Skin and blood compound concentrations after topical application to FVB mice
Description: as §6, §7

ROCK2 = ROCK2 (Homo sapiens (Human), UniProt O75116); experiment: ROCK2 kinase assay (IMAP fluorescence polarization); format: biochemical; details: 1 μM ATP; read-out: ROCK2 Average Ki
Plasma protein binding = format: in vitro ADME
G7 intracranial tumours = experiment: Survival of mice bearing G7 intracranial GBM tumours; format: in vivo, mouse
Description: Female CD1 nude mice were orthotopically injected with 1×10^5 G7 or U87MG cells into the subventricular zone as previously described (16, 17). Tumours were allowed to establish […] magnetic resonance imaging (MRI) to confirm presence of tumour. Radiation treatments were conducted using an XSrtahl Small Animal Radiation Research Platform (SARRP). 5 mg/kg BDP-9066 or vehicle (20% propylene glycol/80% PBS) was given subcutaneously twice daily or at stated time before cull for PK analysis. Tumours were sub-dissected and fresh frozen specimens sent for PK analysis (Vertex, UK). Formalin fixed, paraffin embedded sections were stained for Ki67, HLA or phosphoMYPT1 then scanned using a Hamamatsu Nanozoomer Slide scanning machine with Leica SlidePath Slide imaging software. Algorithms were optimised for each stain individually and automated, quantitative analysis undertaken. The defining of contralateral regions was performed blinded.
FIG. 6. […] (A) Outline of experiment to measure in vivo survival to BDP-9066 treatment. G7 intracranial tumours were allowed to establish for 10 weeks before initiation of treatment. Mice in the RT cohorts received 6×2 Gy whole brain RT over the course of two weeks. Only mice that were culled after the first 3 fractions of RT were included in the analysis to allow for any treatment benefit to take effect. The study was randomised, blinded and the mice stratified across the cohorts based on starting tumour size as assessed by T2 MRI. (B) Kaplan-Meier plot showing survival data. N.S.=not significant, *<p 0.05, **p<0.005. Statistical analysis: Log-rank (Mantel-Cox) test.
Pharmacological inhibition of MRCK when combined with radiotherapy confers a significant survival benefit to intracranial GBM tumour bearing mice. G7 intracranial tumours were established in four cohorts of mice: vehicle, BDP-9066, RT+vehicle and RT+BDP-9066 (FIG. 6A) and the 4 week treatment schedule outlined in FIG. 6A was commenced at 10 weeks post tumour cell injection. The experiment was terminated at 104 days after a final T2 MRI on the remaining mice.

MRCKα = MRCKα (Homo sapiens (Human), UniProt Q5VT25); experiment: MRCKα kinase assay (IMAP fluorescence polarization); format: biochemical; details: 1 μM ATP; read-out: MRCK-a Average Ki
Text: as §1

MRCKβ [10] = target: T1, MRCKβ; experiment: MRCKβ cellular assay (pMLC T18/S19 immunoblot, MDA-MB-231 cells with doxycycline inducible kinase domain); format: cell-based; details: MDA-MB-231 cells, doxycycline inducible kinase domain, 60 minutes, pMLC (T18/S19); read-out: Cellular assay - MRCK-b inhibition MEAN
Method in brief: (§2)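 Kinase domain expression in MDA-MB-231 cells induced with 1 μg/ml doxycycline for 18 h, then compounds applied over a concentration range for 60 min. Lysates resolved by SDS-PAGE; pMLC (T18/S19) and α-tubulin measured by quantitative IR immunoblotting.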

pMYPT1 = pMYPT1 IHC of brain sections from mice bearing G7 intracranial tumours; format: in vivo, mouse; details: 3×2 Gy whole brain RT + 5 mg/kg twice daily for 10 days; listed as BDP-9066
Description: as §8, §9

ROCK1 [11] = target: T2, ROCK1; experiment: ROCK1 cellular assay (pMLC T18/S19 immunoblot, MDA-MB-231 cells with doxycycline inducible kinase domain); format: cell-based; details: MDA-MB-231 cells, doxycycline inducible kinase domain, 60 minutes, pMLC (T18/S19); read-out: Cellular assay - ROCK1 inhibition MEAN
Method in brief: as §2

[12] = FVB, mouse, skin, topical, 25 μg

Chain of kinase targets listed in tables 3 and 4 (Homo sapiens, UniProt Q9BXA7) (Q9BXA7 whole entry, looked up): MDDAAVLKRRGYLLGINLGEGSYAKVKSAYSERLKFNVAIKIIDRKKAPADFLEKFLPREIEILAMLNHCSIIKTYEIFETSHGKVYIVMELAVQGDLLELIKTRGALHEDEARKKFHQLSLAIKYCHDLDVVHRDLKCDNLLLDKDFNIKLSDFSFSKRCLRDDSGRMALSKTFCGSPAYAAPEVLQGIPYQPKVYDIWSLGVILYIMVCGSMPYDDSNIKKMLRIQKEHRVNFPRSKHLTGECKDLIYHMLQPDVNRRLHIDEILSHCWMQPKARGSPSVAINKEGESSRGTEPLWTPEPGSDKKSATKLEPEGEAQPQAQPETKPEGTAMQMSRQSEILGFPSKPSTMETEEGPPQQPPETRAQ
T2 sequence (Q13464 2-1354 limits assumed): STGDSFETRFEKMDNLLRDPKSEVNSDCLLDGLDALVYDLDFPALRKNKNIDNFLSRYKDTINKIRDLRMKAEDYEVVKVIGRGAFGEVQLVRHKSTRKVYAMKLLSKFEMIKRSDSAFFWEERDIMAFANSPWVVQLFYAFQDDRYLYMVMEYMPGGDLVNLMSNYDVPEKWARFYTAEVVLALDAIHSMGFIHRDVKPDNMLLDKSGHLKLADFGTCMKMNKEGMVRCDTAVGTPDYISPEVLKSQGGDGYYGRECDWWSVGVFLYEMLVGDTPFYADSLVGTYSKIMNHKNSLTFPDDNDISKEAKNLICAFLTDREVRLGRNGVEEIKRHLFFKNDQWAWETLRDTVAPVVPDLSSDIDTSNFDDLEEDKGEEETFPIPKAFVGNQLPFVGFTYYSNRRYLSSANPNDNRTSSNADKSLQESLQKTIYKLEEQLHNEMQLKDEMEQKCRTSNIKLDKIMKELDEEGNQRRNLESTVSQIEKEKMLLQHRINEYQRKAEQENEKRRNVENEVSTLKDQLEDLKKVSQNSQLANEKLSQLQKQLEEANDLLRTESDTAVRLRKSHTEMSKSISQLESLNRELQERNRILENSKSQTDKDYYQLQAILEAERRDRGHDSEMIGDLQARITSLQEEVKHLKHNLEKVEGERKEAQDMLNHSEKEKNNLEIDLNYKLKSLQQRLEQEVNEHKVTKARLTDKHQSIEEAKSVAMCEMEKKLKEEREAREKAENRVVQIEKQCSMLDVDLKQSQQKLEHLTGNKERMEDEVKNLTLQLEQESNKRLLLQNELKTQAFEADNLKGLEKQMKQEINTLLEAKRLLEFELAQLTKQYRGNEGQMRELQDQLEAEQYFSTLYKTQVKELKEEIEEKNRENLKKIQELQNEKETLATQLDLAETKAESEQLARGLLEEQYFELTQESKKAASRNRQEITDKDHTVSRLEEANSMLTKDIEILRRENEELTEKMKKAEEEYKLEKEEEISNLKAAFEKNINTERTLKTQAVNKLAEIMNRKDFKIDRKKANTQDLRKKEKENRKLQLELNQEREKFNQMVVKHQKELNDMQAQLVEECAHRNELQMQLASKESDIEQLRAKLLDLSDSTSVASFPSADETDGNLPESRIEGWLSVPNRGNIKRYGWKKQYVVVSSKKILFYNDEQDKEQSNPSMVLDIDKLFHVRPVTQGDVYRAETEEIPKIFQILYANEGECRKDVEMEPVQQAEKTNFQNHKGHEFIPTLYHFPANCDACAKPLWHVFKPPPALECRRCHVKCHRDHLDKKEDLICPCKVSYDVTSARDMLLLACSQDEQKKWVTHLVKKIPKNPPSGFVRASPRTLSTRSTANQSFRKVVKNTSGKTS
Chain of kinase targets listed in tables 3 and 4 (Homo sapiens, UniProt Q13464) (Q13464 2-1354 limits assumed): as above
Chain of kinase targets listed in tables 3 and 4 (Homo sapiens, UniProt Q9Y5S2) (Q9Y5S2 whole entry, looked up): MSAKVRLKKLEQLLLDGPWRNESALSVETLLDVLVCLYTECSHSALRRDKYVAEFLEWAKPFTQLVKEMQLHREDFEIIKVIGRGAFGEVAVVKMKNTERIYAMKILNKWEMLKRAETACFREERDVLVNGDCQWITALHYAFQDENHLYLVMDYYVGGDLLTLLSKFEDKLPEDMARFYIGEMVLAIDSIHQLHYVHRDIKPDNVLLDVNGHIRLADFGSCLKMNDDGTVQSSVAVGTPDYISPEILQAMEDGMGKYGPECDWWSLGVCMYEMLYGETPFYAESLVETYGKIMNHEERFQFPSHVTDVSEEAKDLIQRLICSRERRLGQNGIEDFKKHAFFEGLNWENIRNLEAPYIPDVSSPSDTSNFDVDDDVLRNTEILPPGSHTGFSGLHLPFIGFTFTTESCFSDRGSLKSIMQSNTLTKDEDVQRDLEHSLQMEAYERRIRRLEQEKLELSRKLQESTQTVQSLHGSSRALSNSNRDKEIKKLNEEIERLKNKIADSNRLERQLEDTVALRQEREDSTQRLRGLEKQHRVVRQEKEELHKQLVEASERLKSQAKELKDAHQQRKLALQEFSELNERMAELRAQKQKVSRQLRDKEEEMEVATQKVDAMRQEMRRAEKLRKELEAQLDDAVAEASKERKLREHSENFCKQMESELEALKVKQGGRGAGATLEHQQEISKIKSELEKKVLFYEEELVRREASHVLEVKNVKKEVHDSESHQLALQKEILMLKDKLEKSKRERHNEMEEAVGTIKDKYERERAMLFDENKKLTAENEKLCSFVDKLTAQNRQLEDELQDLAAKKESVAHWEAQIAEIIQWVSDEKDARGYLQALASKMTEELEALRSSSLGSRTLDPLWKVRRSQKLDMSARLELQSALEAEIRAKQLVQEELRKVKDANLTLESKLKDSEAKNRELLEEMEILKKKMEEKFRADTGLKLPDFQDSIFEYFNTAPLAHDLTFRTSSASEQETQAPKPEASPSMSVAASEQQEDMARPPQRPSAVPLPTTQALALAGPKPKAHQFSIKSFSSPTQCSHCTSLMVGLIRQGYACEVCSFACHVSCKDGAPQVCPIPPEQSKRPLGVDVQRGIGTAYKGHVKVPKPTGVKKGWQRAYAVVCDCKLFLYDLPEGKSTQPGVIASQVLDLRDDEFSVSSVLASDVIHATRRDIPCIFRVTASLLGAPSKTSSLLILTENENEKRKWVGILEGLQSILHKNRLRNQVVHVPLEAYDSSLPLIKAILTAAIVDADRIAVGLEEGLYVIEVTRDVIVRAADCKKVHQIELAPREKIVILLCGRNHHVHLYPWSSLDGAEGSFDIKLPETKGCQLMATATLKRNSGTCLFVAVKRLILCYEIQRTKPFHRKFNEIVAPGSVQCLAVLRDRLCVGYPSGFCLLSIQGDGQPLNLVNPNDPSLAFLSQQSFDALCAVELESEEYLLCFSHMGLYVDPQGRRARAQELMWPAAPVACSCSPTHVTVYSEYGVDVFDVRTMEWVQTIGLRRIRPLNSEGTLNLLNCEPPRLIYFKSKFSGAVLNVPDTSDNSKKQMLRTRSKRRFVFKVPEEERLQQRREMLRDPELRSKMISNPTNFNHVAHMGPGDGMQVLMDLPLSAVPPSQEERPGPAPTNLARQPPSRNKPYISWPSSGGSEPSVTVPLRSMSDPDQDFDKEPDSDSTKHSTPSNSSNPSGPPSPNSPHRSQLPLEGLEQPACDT
Chain of ROCK2 (O75116 whole entry): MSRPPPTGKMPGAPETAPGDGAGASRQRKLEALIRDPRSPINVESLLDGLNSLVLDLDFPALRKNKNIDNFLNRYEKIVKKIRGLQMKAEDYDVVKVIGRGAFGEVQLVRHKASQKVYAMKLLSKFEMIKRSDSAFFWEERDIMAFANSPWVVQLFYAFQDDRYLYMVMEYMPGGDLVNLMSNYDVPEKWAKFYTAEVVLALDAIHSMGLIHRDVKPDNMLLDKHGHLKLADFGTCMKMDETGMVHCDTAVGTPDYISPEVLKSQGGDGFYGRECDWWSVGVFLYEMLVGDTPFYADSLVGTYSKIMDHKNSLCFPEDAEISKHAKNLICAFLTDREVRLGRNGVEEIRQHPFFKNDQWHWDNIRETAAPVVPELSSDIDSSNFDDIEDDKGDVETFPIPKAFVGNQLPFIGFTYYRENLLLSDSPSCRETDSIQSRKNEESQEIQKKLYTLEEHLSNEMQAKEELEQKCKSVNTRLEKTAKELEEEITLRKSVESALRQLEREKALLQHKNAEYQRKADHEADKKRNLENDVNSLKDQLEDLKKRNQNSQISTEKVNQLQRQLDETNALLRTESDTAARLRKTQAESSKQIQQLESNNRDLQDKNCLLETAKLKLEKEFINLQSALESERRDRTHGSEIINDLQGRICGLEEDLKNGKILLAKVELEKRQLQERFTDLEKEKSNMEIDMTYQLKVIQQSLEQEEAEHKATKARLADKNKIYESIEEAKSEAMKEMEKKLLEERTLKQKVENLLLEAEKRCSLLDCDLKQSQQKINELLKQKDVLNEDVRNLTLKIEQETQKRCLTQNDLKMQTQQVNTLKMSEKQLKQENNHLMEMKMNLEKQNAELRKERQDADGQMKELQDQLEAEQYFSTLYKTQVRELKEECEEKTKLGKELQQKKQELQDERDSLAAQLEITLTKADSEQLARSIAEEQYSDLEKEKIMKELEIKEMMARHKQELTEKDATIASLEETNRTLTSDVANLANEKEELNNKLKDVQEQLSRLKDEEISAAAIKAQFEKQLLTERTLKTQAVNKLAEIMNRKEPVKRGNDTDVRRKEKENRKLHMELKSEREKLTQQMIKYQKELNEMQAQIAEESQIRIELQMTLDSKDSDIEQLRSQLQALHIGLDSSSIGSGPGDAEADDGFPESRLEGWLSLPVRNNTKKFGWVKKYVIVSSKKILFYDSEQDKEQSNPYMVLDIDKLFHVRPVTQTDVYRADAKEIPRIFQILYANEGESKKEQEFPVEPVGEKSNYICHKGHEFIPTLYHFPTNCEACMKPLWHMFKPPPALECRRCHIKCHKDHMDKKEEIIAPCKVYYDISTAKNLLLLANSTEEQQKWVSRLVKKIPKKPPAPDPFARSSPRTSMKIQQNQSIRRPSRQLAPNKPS

c1cc(-c2c[nH]c3nccc(N4CCC[C@@]5(CCCCN5)C4)c23)ncn1 [Example E117, (6S)-8-(3-pyrimidin-4-yl-1H-pyrrolo[2,3-b]pyridin-4-yl)-1,8-diazaspiro[5.5]undecane]
Ki (MRCKβ [1]): 0.0233 nM | radiation sensitivity measured by clonogenic survival (G7 and E2 cells): no impact | response in morphological assay (neurites) (E2 cells [2]): robust dose dependent response | radiation driven sub confluent migration (E2 and G7 cells; 100 nM, G7 and E2 cells): fully oppose | cell speed of irradiated GBM cells (E2 and G7 cells; increasing concentrations, E2 and G7 cells): robust dose response | IC50 (pMLC2; Homo sapiens, light or radiation study, irradiated G7 and E2 cells): 56 nM | response in biomarker assay (pMLC2) (pMLC2; cells treated with irradiation): robust dose dependent response | MRCKα pS1003 cytoplasmic histoscores in papillomas (MRCKα pS1003; DMBA/TPA mice, topical 25 μg): reduced histoscores | MRCKα pS1003 cytoplasmic histoscores in the treated skin area (MRCKα pS1003; DMBA/TPA mice, topical 25 μg): reduced histoscores | MRCKα pS1003 immunohistochemistry staining (MRCKα pS1003; DMBA/TPA treated skin, topical 25 μg): significant decreases | epidermal MRCKα pS1003 positive staining (MRCKα pS1003; topical 4×25 μg over 2 days, FVB mouse skin): significant reduction; also recorded: significantly reduced | radiation driven ex vivo brain slice invasion (E2 cells [3]): fully oppose | cell viability at higher concentrations (G7 cells; higher concentrations, likely off target toxicity): loss of cell viability | cell viability (G7 cells; sub-micromolar levels / anti-invasive concentrations, G7 cells, listed as BDP-9066): does not affect cell survival; also recorded: No effect | penetration of intracranial tumours ([4]; 5 mg/Kg subcutaneous, 30 mins prior to cull, U87MG and G7 tumours, listed as BDP-9066): penetrates intracranial GBM xenografts; also recorded: penetrated intracranial tumours | presence in blood at the time of culling ([4]; 5 mg/kg subcutaneous twice daily for 10 days): micromolar concentrations | bioavailability ([4]; PK profile, data not shown): good bioavailability | clearance ([4]; PK profile, data not shown): rapid clearance | exposure in the brain, contralateral hemisphere ([4]; sub-cutaneous dosing, absence of significant tumour burden): very low exposure | average papilloma volume per mouse (DMBA/TPA skin papillomas): significantly reduced | skin papilloma appearance at study end (DMBA/TPA skin papillomas): appeared visually smaller | total papilloma numbers per mouse (DMBA/TPA skin papillomas): not different | total tumor volume per mouse (DMBA/TPA skin papillomas): significantly reduced | Ki (ROCK1 [5]): 18.4 nM | IC50 [6]: 287 nM | Ki [6]: 136 nM | IC50 [7]: 141 nM | Ki [7]: 54 nM | IC50 [8]: 8.3 nM | Ki [8]: 1.38 nM | compound in blood at experimental endpoint ([9]; DMBA/TPA FVB mice, topical 25 μg 5 times per week for 14 weeks): no detectable levels; also recorded: undetectable | concentration at 2 h ([9]; FVB, mouse, blood, topical, 25 μg): 0.04 µM | concentration at 14 weeks [9, 12]: > 1 µM | concentration at 2 h [9, 12]: 26 µM | concentration at 24 h [9, 12]: > 16 µM | clearance in the blood ([9]; by deactivation and/or metabolism): rapid clearance | drug levels in the skin compared with blood ([9]; topical 4×25 μg over 2 days, dorsal skin): significantly higher than in blood | mean concentration in the skin ([9]; topical administration, DMBA/TPA experiment): greater than 1 micromolar | level in blood 24 hours after final dosing ([9]; topical single 25 μg or 8×25 μg (4 days on, 2 off, 4 on)): undetectable | compound accumulation on repeated dosing ([9]; topical, repeated 25 μg vs single 10 μg): less than additive | Ki (ROCK2): 5.38 nM | PPB free value (Plasma protein binding): 72.7% | fraction unbound (Plasma protein binding; plasma): 0.727 | survival, combined with RT vs untreated cohort (G7 intracranial tumours; 6×2 Gy whole brain RT, p=0.0007, listed as BDP-9066): significant survival advantage; also recorded: highly significant increase in survival | survival, combined with RT vs radiation alone (G7 intracranial tumours; 6×2 Gy whole brain RT, p=0.0459): significantly above | survival, compound alone (G7 intracranial tumours; vs untreated cohort): no significant survival benefit | Ki (MRCKα): 0.0136 nM | IC50 (MRCKβ [10]): 28.3 nM | radiation driven MYPT1 phosphorylation (pMYPT1): inhibits; also recorded: opposes | IC50 (ROCK1 [11]): 10600 nM
